From publication PMC11768664 (Viruses, 2024)
Converted amounts (≈) assume the structure as drawn. “And” between values parts separate entries of the source, which are not always exact repeats. Equal entries are not always repeated. Where two headings read alike, the source gives them in different places.

Tests used:
[1] = tested on: W12I 20862 cervical precancer cells; assay: Growth inhibition MTT assay on W12 clone 20862 (type 2 integrant); type: cell-based
[2] = tested on: W12I 20861 cervical precancer cells; assay: Growth inhibition MTT assay on W12 clone 20861 (type 2 integrant); type: cell-based; settings: 120 h, read-out: IC50, growth inhibitory activity on W12 clone 20861
[3] = tested on: W12I 20822 cervical precancer cells; assay: Growth inhibition MTT assay on W12 clone 20822 (type 1 integrant); type: cell-based
[4] = tested on: W12E 20850 cervical precancer cells; assay: Growth inhibition MTT assay on W12 clone 20850 (episomal HPV16); type: cell-based; settings: for IC50: 120 h, read-out: IC50, growth inhibitory activity on W12 clone 20850
HT29 colon cancer cells = assay: Growth inhibition (proliferation) MTT assay on HT29 cells; type: cell-based; settings: Homo sapiens
[5] = tested on: HeLa human cervical cancer cells; assay: Growth inhibition (proliferation) MTT assay on HeLa cells; type: cell-based; settings: for IC50: Homo sapiens
Na^+/K^+-ATPase = molecular target: Na^+/K^+-ATPase; parameters: method as in earlier work; settings: read-out: IC50, inhibition of the activity of the Na+/K+-ATPase, cited from earlier work
[6] = tested on: cell cycle genes in HeLa cells; assay: Gene expression analysis of HeLa cells treated with curcumin; type: cell-based, human; settings: curcumin 32 µM, 8 h
[7] = tested on: J2 3T3 mouse embryo fibroblasts (feeder cells); assay: Growth inhibition MTT assay on 3T3 feeder cells; type: cell-based; settings: NIH3T3, read-out: IC50, growth inhibitory activity on 3T3 feeder cells
[8] = tested on: HeLa human cervical cancer cells; assay: Combination growth inhibition assay and Combination Index on HeLa cells; type: cell-based
[9] = 120 h, read-out: IC50, growth inhibitory activity on W12 clone 20862
[10] = 120 h, read-out: IC50, growth inhibitory activity on W12 clone 20822
[11] = HT-29, HT29, MTT, 96 h (Figure 1 legend; table footnote prints 120 h), read-out: IC50, growth inhibitory activity on HT29 cells
[12] = MTT, 96 h (Figure 1 legend; table footnote prints 120 h), read-out: IC50, growth inhibitory activity on HeLa cells

## COC1=CC(=O)O[C@@H](CCc2ccc3c(c2)OCO3)C1 [DHM, dihydromethysticin]
[1]; [9]
  IC50: 12.8 µg/mL
[2]
  IC50: 12.4 µg/mL (≈ 44.9 µM)
[3]; [10]
  IC50: 10.2 µg/mL
[4]
  IC50: 24.7 µg/mL (≈ 89.4 µM)

## CC(=O)O[C@@H]1C[C@@]23C[C@@]24CC[C@H](O[C@@H]2OC[C@@H](O)[C@H](O)[C@H]2O)C(C)(C)[C@@H]4CC[C@H]3[C@]2(C)C[C@@H]3O[C@]4(C[C@@H](C)[C@@H]3[C@@]12C)O[C@H](O)[C@@]1(C)O[C@@H]41 [actein]
[1]; [9]
  IC50: 36.3 µg/mL
[2]
  IC50: 37.9 µg/mL (≈ 56 µM)
[3]; [10]
  IC50: 55.7 µg/mL
[4]
  IC50: 41.7 µg/mL (≈ 61.6 µM)

## CC(C)c1cc2c(c(O)c1O)[C@@]1(C(=O)O)CCCC(C)(C)[C@@H]1CC2 [carnosic acid]
[1]; [9]
  IC50: 10 µg/mL
[2]
  IC50: 14.1 µg/mL (≈ 42.4 µM)
[3]; [10]
  IC50: 10.7 µg/mL
HT29 colon cancer cells; [11]
  IC50: 2.13 µg/mL (≈ 6.41 µM)
[4]
  IC50: 13 µg/mL (≈ 39.1 µM)
[5]; [12]
  IC50: 2.03 µg/mL (≈ 6.11 µM)

## COc1cc(/C=C/C(=O)CC(=O)/C=C/c2ccc(O)c(OC)c2)ccc1O [curcumin]
Na^+/K^+-ATPase; as previously described
  IC50: 2000 nM
[6]
  Ratio, ATM (NM_000051): 15.43
  Ratio, CDC6 (NM_001254): 2.68
  Ratio, CDC20 (NM_016263): 19.4
  Ratio, CDKN1B (NM_004064): 2.77
  Ratio, E2F4 (NM_001950): 2.37
  Ratio, E2F5 (NM_001951): 2.94
  Ratio, GSK3B (NM_002093): 2.09
  Ratio, ORC1L (NM_004153): 3.10
  Ratio, PLK1 (NM_005030): 2.01
  Ratio, SKP2 (NM_005983): 5.03
  Ratio, SMAD4 (NM_005359): 3.49
  Ratio, SMC3 (NM_005445): −3.89
  Ratio, STAG1 (NM_005862): 2.37
  Ratio, STAG2 (NM_001042749): −3.56
  Ratio, ZBTB17 (NM_003443): 2.48
[6]; text prints fold
  Ratio, ATM (NM_138292): 36 and 35.94

## C[C@H]1O[C@@H](O[C@H]2[C@@H](O)C[C@H](O[C@H]3[C@@H](O)C[C@H](O[C@H]4CC[C@@]5(C)[C@H](CC[C@@H]6[C@@H]5CC[C@]5(C)[C@@H](C7=CC(=O)OC7)CC[C@]65O)C4)O[C@@H]3C)O[C@@H]2C)C[C@H](O)[C@@H]1O [digitoxin, reference compound]
Na^+/K^+-ATPase; comparator, unit inferred
  IC50: < 100 nM
HT29 colon cancer cells; HT-29, 96 h, read-out: Growth inhibitory Activity (ug/mL), HT29 Cells
  IC50: 0.13 µg/mL (≈ 0.17 µM)
[5]; 96 h, read-out: Growth inhibitory Activity (ug/mL), HeLa Cells
  IC50: 0.12 µg/mL (≈ 0.157 µM)

## C[C@H]1O[C@@H](O[C@H]2[C@@H](O)C[C@H](O[C@H]3[C@@H](O)C[C@H](O[C@H]4CC[C@@]5(C)[C@H](CC[C@@H]6[C@@H]5C[C@@H](O)[C@]5(C)[C@@H](C7=CC(=O)OC7)CC[C@]65O)C4)O[C@@H]3C)O[C@@H]2C)C[C@H](O)[C@@H]1O [digoxin, reference compound]
[1]; [9]
  IC50: 0.0245 µg/mL
[2]
  IC50: 0.0037 µg/mL (≈ 0.00474 µM)
[3]; [10]
  IC50: 0.008 µg/mL
HT29 colon cancer cells; HT-29, read-out: IC50, growth inhibitory activity on HT29 cells
  IC50: 0.13 µg/mL (≈ 0.166 µM)
[7]
  IC50: > 10 µg/mL
[4]
  IC50: > 0.025 µg/mL
[5]; read-out: IC50, growth inhibitory activity on HeLa cells
  IC50: 0.12 µg/mL (≈ 0.154 µM)

## C(=Cc1ccccc1)c1ccccc1 [stilbene]
[5]; MTT, 96 h (Figure 1 legend; table footnote prints 120 h)
  IC50, growth inhibitory activity on HeLa cells: greater than 100 µg/mL

## Cc1coc2c1C(=O)C(=O)c1c-2ccc2c1CCCC2(C)C [tanshinone IIA]
[1]; type 2 integrant, 120 h, MTT, read-out: IC50, growth inhibitory activity on W12 clone 20862
  IC50: 3.1 µg/mL
[1]; value quoted with the RT-PCR results, read-out: IC50, relative growth inhibitory effect on 20862
  IC50: 2800 nM
[2]
  IC50: 1.4 µg/mL (≈ 4.76 µM)
[3]; type 1 integrant, 120 h, MTT, read-out: IC50, growth inhibitory activity on W12 clone 20822
  IC50: 2 µg/mL
[3]; value quoted with the RT-PCR results, read-out: IC50, relative growth inhibitory effect on 20822
  IC50: 2100 nM
[8]; tanshinone IIA 0.2 μM alone, 90% curcuminoids experiment
  percentage of viable cells: 134%
[8]; tanshinone IIA 0.2 µΜ alone, 95% curcuminoids experiment
  percent viable cells: 91.96%
HT29 colon cancer cells; HT-29, Figure 1C, 96 h, MTT, read-out: Growth inhibitory Activity (ug/mL), HT29 Cells
  IC50: 1.3 µg/mL (≈ 4.42 µM)
HT29 colon cancer cells; [11]
  IC50: 1.27 µg/mL (≈ 4.31 µM)
[4]; episomal, MTT
  IC50: 2.3 µg/mL (≈ 7.81 µM)
[4]; p = 0.0058
  low concentration with significant activity on 20850 (episomal) cells: 2.5 µM
[5]; Figure 1C, 96 h, MTT, read-out: Growth inhibitory Activity (ug/mL), HeLa Cells
  IC50: 1.4 µg/mL (≈ 4.76 µM)
[5]; [12]
  IC50: 1.33 µg/mL (≈ 4.52 µM)

## lambda carrageenan
[4]; after sonication, inverse pattern in a repeat experiment
  activity on 20850 cells, in words: highly active
